# Measurements: patent publication US20240035071A1, “CATALYTIC DE-CROSSLINKING OF SAMPLES FOR IN SITU ANALYSIS” (10X Genomics, Inc., priority 2022, published 2024)
# Experiments:
# [1] = test system: FFPE human breast cancer tissues; experiment: anti-panCK antibody staining in de-crosslinked FFPE human breast cancer samples; details: various concentrations in citrate or TE buffer; compared to control de-crosslinked in a steamer
# Protocol: FFPE human breast cancer tissues were sectioned to […] thickness, transferred to Superfrost© Plus slides, and processed essentially as described in Example 1. Specifically, 2-amino-5-methylbenzoic acid (Compound 1) was used as the de-crosslinking agent and applied to de-paraffinized and re-hydrated samples in a buffer solution, such as a solution of citrate buffer at pH 6 or a solution of Tris-EDTA (TE) buffer at pH 9. The samples were incubated under various de-crosslinking temperatures (e.g., 80° C. or 95° C.) for various time periods (e.g., 15 minutes or 30 minutes). Different concentrations of the de-crosslinking agent in the buffer solutions were tested, including 0 mM, 50 mM, 100 mM, 200 mM, and 400 mM of Compound 1.
# The samples were washed (e.g., in PBST) and detectable probes in a hybridization buffer (e.g., containing SSC and formamide) were hybridized to RCA products (RCPs) in the sample. The detectable probes included probes that hybridize to sequences (e.g., barcode sequences or anchor sequences) in the RCPs and comprise overhangs for hybridization of fluorescently labelled detection oligonucleotides. The samples were imaged in fluorescent microscope with 40× objective and the signals associated with the RCPs were quantified using a software. […]
# [2] = test system: FFPE human breast cancer, melanoma, lymph node, lung cancer, and normal lung tissues; experiment: anti-Vimentin antibody staining in de-crosslinked FFPE samples from various tissues; details: across the tissue types, compared to de-crosslinking in a steamer and heating at 95° C. in TE buffer
# Source text: (§1) The samples were washed (e.g., in PBST) and detectable probes in a hybridization buffer (e.g., containing SSC and formamide) were hybridized to RCA products (RCPs) in the sample. The detectable probes included probes that hybridize to sequences (e.g., barcode sequences or anchor sequences) in the RCPs and comprise overhangs for hybridization of fluorescently labelled detection oligonucleotides. The samples were imaged in fluorescent microscope with 40× objective and the signals associated with the RCPs were quantified using a software. In some instances, the samples were also stained with DAPI and/or labelled antibodies, e.g., fluorescently labelled anti-Vimentin antibody or anti-panCK antibody. In some instances, once the samples were imaged to detect signals associated with the detectable probes or labelled antibodies, the samples were stripped (e.g., using a denaturing agent) and contacted with additional detectable probes or labelled antibodies for the next imaging round.
# FFPE human breast cancer, melanoma, lymph node, lung cancer, and normal lung tissues were processed essentially as described in Example 1. […] Analytes in the de-crosslinked tissue samples were detected essentially as described in Example 2.
# [3] = test system: normal lung tissue samples; experiment: RCP detection in catalytically de-crosslinked FFPE normal lung tissue samples; parameters: species or system human; details: compared to control samples de-crosslinked in a steamer (data not shown)
# Protocol: (§2) FFPE human breast cancer, melanoma, lymph node, lung cancer, and normal lung tissues were processed essentially as described in Example 1. Specifically, 2-amino-5-methylbenzoic acid (Compound 1) or (4-aminopyridin-3-yl)phosphonic acid (Compound 8) was used as the de-crosslinking agent and applied to de-paraffinized and re-hydrated samples in a buffer solution, such as a solution of citrate buffer at pH 6 or a solution of TE buffer at pH 9. The samples were incubated under various de-crosslinking temperatures (e.g., 80° C. or 95° C.) for 30 minutes, using 0 mM or 200 mM of Compound 1 or Compound 8. Analytes in the de-crosslinked tissue samples were detected essentially as described in Example 2.
# The RCPs were detected using detectable probes targeting barcode sequences for MALAT-I/ACTB or GAPDH/RPLPO or targeting the common anchor region in the RCPs (representative images in FIG. 8, left panel).
# [4] = test system: FFPE human breast cancer samples; experiment: RCP detection in FFPE human breast cancer samples de-crosslinked with additives; details: for detection of RCPs (detected object counts per nucleic area): 150 mM, 80° C., 30 minutes, compared to no additional additives or single additives
# Protocol: (§3) FFPE human breast cancer samples sectioned to […] thickness were processed essentially as described in […]. Specifically, 2-amino-5-methylbenzoic acid (Compound 1) was used as the de-crosslinking agent and applied to de-paraffinized and re-hydrated samples in a buffer solution with various additives, such as 0.05% SDS, 0.2% SDS, 0.5% SDS, 0.05 M urea, 0.5 M urea, 0.2 μg/ml proteinase K, 0.5 μg/ml proteinase K, 1 μg/ml proteinase K, and combinations thereof. The samples were incubated at 80° C. for 30 minutes, using 150 mM of Compound 1. Analytes in the de-crosslinked tissue samples were detected essentially as described in Example 2 using circularizable probes (e.g., padlock probes) targeting ACTB, GAPDH, MALAT-1, RPLPO, Eef2, Ppib, POLR2A RNA transcripts. Detectable probes were hybridized to sequences (e.g., barcode sequences or anchor sequences) in the RCPs and comprised overhangs for hybridization of fluorescently labelled detection oligonucleotides. The samples were imaged in fluorescent microscope with 40× objective and the signals associated with the RCPs were quantified using a software.
# FIG. 10A-10C show the detected object count per nucleic area (RCP count/μm^2 nuclei area) in cells of the human breast cancer samples treated with Compound 1 for de-crosslinking in the presence or absence of additives SDS, urea, and/or proteinase K as indicated. […] In addition, it was observed antibody staining (e.g., antibody positive signal intensity for Pan cytokeratin, Vimentin, and Ki67) was compatible with the catalytic de-crosslinking conditions with Compound 1 in the presence of urea and proteinase K. Tissue morphology was also observed to be preserved post workflow and detection as confirmed by H&E staining that was performed.
# [5] = test system: FFPE mouse brain tissues; experiment: RCP signal detection in de-crosslinked FFPE mouse brain tissues; details: compared to Compound 1 in citrate buffer (pH 6.8)
# Protocol: FFPE mouse brain tissues were processed essentially as described in Example 1, and gene expression analysis for RNA transcripts and protein analysis (e.g., anti-GFAP antibody staining) in the dentate gyrus (DG) region were performed essentially as described in Examples 2 and 3. Four de-crosslinking agent and buffer combinations were tested: Compound 1 in citrate buffer (pH 6.8), Compound 15 in citrate buffer (pH 6.8), Compound 18 (trans-4-hydroxy-L-proline) in citrate buffer (pH 6.8), and Compound 1 in PBS (pH 7.4).
# [6] = test system: FFPE human breast cancer, melanoma, lymph node, lung cancer, and normal lung tissues; experiment: RCP/RNA transcript detection in de-crosslinked FFPE samples from various tissues; details: across the tissue types; for visualization of transcripts GAPDH/RPLPO or MALAT-I/ACTB (RCPs): 0 mM or 200 mM, 30 minutes, compared to de-crosslinking in a steamer; for RNA/protein visualization: overlaid images of RNA detection and protein detection
# Protocol: The de-crosslinked and washed tissue samples can be immediately used for analyte detection. In some instances, circularizable probes (e.g., padlock probes) targeting MALAT-1/ACTB (nuclear/cytoplasmic) or GAPDH/RPLPO (cytoplasmic) RNA transcripts were added in hybridization buffers (e.g., including SSC and formamide) and incubated with the samples to allow hybridization of the circularizable probes to their target nucleic acids. In addition to a target hybridization region, each circularizable probe also contained a common anchor region and a barcode region. Then, the probe hybridization mixture was removed and the samples were washed. For ligation of the circularizable probes hybridized to their target nucleic acids, a ligation reaction mix (e.g., containing a SplintR® ligase buffer, RNase inhibitor and SplintR® ligase) and a rolling circle amplification (RCA) primer were added to the samples and incubated for probe circularization and RCA primer hybridization to the probes. The samples were washed and an RCA reaction mixture (containing Phi29 reaction buffer, dNTPs, Phi29 polymerase) was added and incubated for RCA of the circularized probes.
# as §1
# as §2, with “The samples were incubated under various de-crosslinking temperatures (e.g., 80° C. or 95° C.) for 30 minutes, using 0 mM or 200 mM of Compound 1 or Compound 8.” left out
# [7] = test system: FFPE human breast cancer samples; experiment: antibody staining (Pan cytokeratin, Vimentin, Ki67) in FFPE human breast cancer samples de-crosslinked with additives; details: in the presence of urea and proteinase K
# Protocol: as §3
# (§4) FIG. 10A-10C show the detected object count per nucleic area (RCP count/μm^2 nuclei area) in cells of the human breast cancer samples treated with Compound 1 for de-crosslinking in the presence or absence of additives SDS, urea, and/or proteinase K as indicated. […]
# [8] = test system: FFPE human breast cancer tissues; experiment: RCP detection (RCP count/μm^2 nuclei area) in catalytically de-crosslinked FFPE human breast cancer samples; details: for detection of RCPs (detected object counts per nucleic area, RCP count/μm^2 nuclei area): 100 mM, 80° C., 30 minutes, compared to control de-crosslinked in a steamer for 30 minutes using citrate buffer (pH 6)
# Source text: A formalin-fixed, paraffin-embedded (FFPE) tissue sample was cut into thin tissue sections using a pre-warmed microtome. The sections were placed on slides and dried at a temperature higher than room temperature, followed by overnight drying at room temperature in a desiccator. Images of the sections were taken for record, e.g., in order to monitor tissue morphology and/or detachment during sample processing. In some instances, images of the sections taken after de-crosslinking were compared to those before de-crosslinking.
# The slides were baked uncovered in an oven, and then calibrated to room temperature. The sections were de-paraffinized and dehydrated using xylene and absolute ethanol. The sections were then re-hydrated using an ethanol series (e.g., 96% ethanol followed by 70% ethanol), and then re-hydrated in nuclease free water (e.g., DEPC water). The slides were gently dried to allow application of a cassette to seal around the tissue sections, without letting the tissue section to dry completely.
# The sections were then de-crosslinked using a catalyst disclosed herein in a buffer solution. In some instances, the a de-crosslinking buffer can function as an antigen retriever buffer. Then the sections were washed three times with RNase-free phosphate-buffered saline (PBS) or PBST (phosphate-buffered saline solution with a low-concentration detergent solution, e.g., 0.05% to 0.1% Tween™ 20) prior to application of labelling agents (e.g., detectable nucleic acid probes for nucleic acids and/or labelled antibodies for proteins) to the tissue samples.
# FFPE human breast cancer tissues were sectioned to […] thickness, transferred to Superfrost© Plus slides, and processed essentially as described in Example 1. Specifically, 2-amino-5-methylbenzoic acid (Compound 1) was used as the de-crosslinking agent and applied to de-paraffinized and re-hydrated samples in a buffer solution, such as a solution of citrate buffer at pH 6 or a solution of Tris-EDTA (TE) buffer at pH 9. […]
# [9] = test system: FFPE human breast cancer samples; experiment: tissue morphology by H&E staining after de-crosslinking workflow with additives; details: post workflow and detection, confirmed by H&E staining
# Protocol: as §3, §4
structure (smiles),measurement,setting,value
"Cc1ccc(N)c(C(=O)O)c1 [Compound 1, 2-amino-5-methylbenzoic acid]","antibody staining (antibody positive signal intensity), anti-panCK",[1],may be improved
same,anti-Vimentin antibody staining,[2],enhanced anti-Vimentin antibody staining
same,"RCP densities (detected object count per nucleic area, RCP count/μm^2 nuclei area)",[3],Higher RCP densities
same,detection of RCPs (detected object counts per nucleic area),[4]; in the presence of SDS and proteinase K,appeared to improve the detection of RCPs
same,detection of RCPs (detected object counts per nucleic area),[4]; in the presence of urea and proteinase K,appeared to improve the detection of RCPs
same,puncta brightness and/or numbers detected,[4]; in the presence of both 0.5 M urea and 1 μg/ml proteinase K,increases in puncta brightness and/or numbers detected
same,puncta brightness and/or numbers detected,[4]; in the presence of both 0.5 M urea with 0.5 μg/ml Proteinase K,increases in puncta brightness and/or numbers detected
same,signal density (detected object signal intensity above local background (mean)),[5]; PBS (pH 7.4),improved signal density
same,visualization of transcripts GAPDH/RPLPO or MALAT-I/ACTB (RCPs),[6],enhanced visualization
same,RNA/protein visualization,[6],enhanced RNA/protein visualization
same,"antibody staining (antibody positive signal intensity for Pan cytokeratin, Vimentin, and Ki67)",[7],compatible
same,"detection of RCPs (detected object counts per nucleic area, RCP count/μm^2 nuclei area)",[8]; TE buffer (pH 9),significantly improve the detection of RCPs
same,"detection of RCPs (detected object counts per nucleic area, RCP count/μm^2 nuclei area)",[8]; citrate buffer (pH 6),significantly improve the detection of RCPs
same,sensitivity and RCP brightness,"[8]; citrate buffer, between about 100 and about 200 mM",boost sensitivity and RCP brightness
same,tissue morphology,[9],preserved
"Nc1ccncc1P(=O)(O)O [Compound 8, (4-aminopyridin-3-yl)phosphonic acid]",anti-Vimentin antibody staining,[2],enhanced anti-Vimentin antibody staining
same,"RCP densities (detected object count per nucleic area, RCP count/μm^2 nuclei area)",[3],Higher RCP densities
same,visualization of transcripts GAPDH/RPLPO or MALAT-I/ACTB (RCPs),[6],enhanced visualization
same,RNA/protein visualization,[6],enhanced RNA/protein visualization
"Nc1ccccc1P(=O)(O)O [Compound 15, (2-aminophenyl)phosphonic acid]",signal density (detected object signal intensity above local background (mean)),[5]; citrate buffer (pH 6.8),improved signal density
"O=C(O)[C@@H]1C[C@@H](O)CN1 [Compound 18, trans-4-hydroxy-L-proline]",signal density (detected object signal intensity above local background (mean)),[5]; citrate buffer (pH 6.8),improved signal density
